# From patent US12162934B2, “Gremlin-1 antagonist for the prevention and treatment of cancer” (UCB BIOPHARMA SRL, priority 2018, dated 2024)
# Experiments:
# 5TGM1.Bmx1 MM PCs [1] = assay: 5TGM1/KaLwRij mouse model of multiple myeloma, antibody after tumour cell inoculation; type: in vivo; conditions: for Reduction in MM tumour burden (BLI): 30 mg/kg s.c. every 3 days from 3 days post-inoculation, 4 weeks
# Experimental: Targeting Grem1 in an immunocompetent murine model of systemic MM: C57BL/KaLwRij mice (6-8-week-old) were inoculated with 5×10^5 5TGM1.Bmx1 cells via tail vein injection. Three days post-inoculation with 5TGM1.Bmx1 MM PCs, KaLwRij mice were administered with 30 mg/kg Grem1-neutralising antibody Ab7326 or IgG control Ab101.4 (UCB-Pharma, UK) by subcutaneous (s.c.) injection. Mice were treated every 3 days for the duration of the 4-week model. Tumour burden was monitored weekly by BLI as previously described. At the end of the experiment, blood was collected by tail bleed, centrifuged at 2100 g for 10 min and serum collected. Serum paraprotein levels were analysed using the Hydragel 30 β1β2 kit (Sebia Electrophoresis, Georgia, USA) following the instructions of the manufacturer. The band corresponding to paraprotein was quantitated relative to serum albumin levels. (SAAMRI Animal Ethics SAM165)
# [2] = tested on: intestinal epithelial pSMAD1,5 signalling; assay: Western blot of intestinal epithelial pSMAD1,5 in treated Vil1-Grem1 animals; type: in vivo, mouse
# Experimental: Western blotting. Isolation of colon epithelium cells was carried out by incubating a 2 cm long piece of tissue with 30 mM EDTA for 2 h with agitation at 4° C. Pelleted epithelial cells were lysed RIPA lysis buffer with the addition of protease inhibitors (Complete Mini, Roche) and phosphatase inhibitors (PhosSTOP, Roche). All lysates were quantified using the BCA assay (Thermo Scientific), […] was diluted in an appropriate amount of 4× loading dye (Invitrogen) and denatured at 95° C. for 5 minutes. Western blotting was done with the NuPAGE Gel system, (Invitrogen) according to manufacturer's protocol. Briefly, denatured lysates were loaded onto a 4-12% gel and run at 100 V for at least 2 hours. The gels were transferred onto PVDF membrane (Immobilon P, Millipore) in a semi-dry tank (120 mA for at least 2 hours) and blocked by incubating for 1 hour at room temperature in TBS containing 10% milk (Marvel). […] After further washes, the blots were incubated in ECL reagents (GE healthcare) and chemiluminescence was detected by chemiluminescence film (GE Healthcare).
# Epithelial BMP activity can be measured by phosphorylation of the SMAD 1,5,8 intracellular signalling transducers.
# The aberrant epithelial Grem1 expression in Vil1-Grem1 mice suppressed physiological intestinal BMP pathway activity with reduction in detected pSMAD1,5 protein levels detected by Western blot.
# Vil1-Grem1;Apc^Min mice = assay: Vil1-Grem1;Apc^Min mouse polyposis model (survival); type: in vivo
# 5TGM1.Bmx1 MM PCs [3] = assay: 5TGM1/KaLwRij mouse model of multiple myeloma, antibody prior to tumour cell inoculation; type: in vivo
# Experimental: Targeting Grem1 prior to tumour cell inoculation in an immunocompetent murine model of systemic MM: C57BL/KaLwRij mice (6-8-week-old) were administered two doses of 30 mg/kg Grem1-neutralising antibody Ab7326 or IgG control Ab101.4 (UCB-Pharma, UK) by subcutaneous (s.c.) injection three days and one day prior to tumour inoculation. At Day 0, mice were inoculated with 5×10^5 5TGM1.Bmx1 cells via tail vein injection. Mice continued to receive either 30 mg/kg Grem1-neutralising antibody Ab7326 or IgG control Ab101.4 (UCB-Pharma, UK) by s.c. injection every 3 days for the duration of the 4-week model. Tumour burden was monitored weekly by BLI as previously described. At the end of the experiment, blood was collected by tail bleed, centrifuged at 2100 g for 10 min and serum collected. Serum paraprotein levels were analysed using the Hydragel 30 β1β2 kit (Sebia Electrophoresis, Georgia, USA) according to the manufacturer's instructions. The band corresponding to paraprotein was quantitated relative to serum albumin levels. (SAHMRI Animal Ethics SAM165)
# [4] = tested on: PyMT-B01 mouse breast cancer cells; assay: PyMT-B01 breast cancer model in C57BL6 mice (BLI); type: in vivo
# Experimental: PyMT-B01: 5-week old C57BL6 immunocompetent mice were subcutaneously (s.c) administered two 30 mg/kg doses of anti-Grem1 antibody Ab7326 or IgG control, Ab101.4, the week prior to tumour cell inoculation. 1×10^5 luciferase expressing PyMT-B01 mouse breast cancer cells were injected systemically via the caudal artery (CA).
# Treatment continued twice weekly for the duration of the study. At weekly intervals, mice were administered 150 mg/kg luciferin intraperitoneally (i.p) and imaged using the Xenogen IVIS Bioluminescence Imaging System, and tumour burden was quantitated using Living Image software. The study ended on day 13 and day 22 post-tumour cell injection for the PyMT-B01 and MDA-MB-231 models respectively, according to animal ethics requirements. Organs were dissected upon culling animals and BLI imaged ex vivo for analysis of tumour metastasis.
# Apc^Min mice = assay: Apc^Min mouse polyposis model (survival); type: in vivo; conditions: for median survival: vehicle 192 days
substance,measurement,setting,value
Ab7326: allosteric inhibitory anti-Gremlin-1 antibody from a naïve human library; CDRs SEQ ID NOS 4 to 9; mouse IgG1 in mouse experiments,Reduction in MM tumour burden (BLI),5TGM1.Bmx1 MM PCs [1]; vs IgG control,~50%
same,Reduction in MM tumour burden (BLI),"5TGM1.Bmx1 MM PCs [1]; vs IgG control, listed as Grem1-neutralising antibody",approximately 50%
same,Tumour burden in the hindlimb bones (BLI),"5TGM1.Bmx1 MM PCs [1]; antibody after tumour cell inoculation, vs IgG control",significant reduction
same,Splenic tumour burden,5TGM1.Bmx1 MM PCs [1]; post-tumour cell inoculation group,downwards trend
same,M-spike intensity relative to serum albumin (SPEP),"5TGM1.Bmx1 MM PCs [1]; week 4, vs IgG control",significantly lower
same,"Restoration of intestinal epithelial pSMAD1,5 signalling",[2]; 10 mg/kg weekly subcutaneous,not
same,"Restoration of intestinal epithelial pSMAD1,5 signalling",[2]; 30 mg/kg weekly subcutaneous,able to restore
same,median survival,"Vil1-Grem1;Apc^Min mice; 15 mg/kg weekly, from 21 days of age, vehicle 45 days",76.5 days
same,mean lifespan,"Vil1-Grem1;Apc^Min mice; 30 mg/kg twice weekly from 3 weeks of age, untreated VG-min 46 days",108 days
same,median survival,"Vil1-Grem1;Apc^Min mice; 30 mg/kg weekly, from 21 days of age, ongoing experiment",108 days
same,median survival,"Vil1-Grem1;Apc^Min mice; 60 mg/kg weekly, from 21 days of age, ongoing experiment",111 days
same,median survival,"Vil1-Grem1;Apc^Min mice; late stage: treatment at or from the age of 35 days, antibody 30 mg/kg weekly, 5FU two i.p. daily doses of 40 mg/kg, no treatment 45 days",49.5 days
same,Reduction in tumour burden (BLI),"5TGM1.Bmx1 MM PCs [3]; 30 mg/kg s.c. from three days prior to inoculation, 4-weeks post-tumour cell inoculation, vs IgG control",approximately 75%
same,Tumour burden in the hindlimb bones (BLI),"5TGM1.Bmx1 MM PCs [3]; antibody prior to tumour cell inoculation, vs IgG control",significant reduction
same,Additional reduction in overall tumour burden compared with treatment following tumour cell inoculation,5TGM1.Bmx1 MM PCs [3]; end of the study,25%
same,Splenic tumour burden,5TGM1.Bmx1 MM PCs [3]; pre-tumour cell inoculation group,downwards trend
same,M-spike intensity relative to serum albumin (SPEP),"5TGM1.Bmx1 MM PCs [3]; week 4, vs IgG control",significantly lower
same,Reduction in overall tumour burden (BLI),"[4]; day 13, 30 mg/kg s.c. twice weekly, vs isotype control Ab101.4",35%
same,Liver metastatic tumour burden (BLI),[4]; vs isotype control,downward trend
same,Lung metastatic tumour burden (ex vivo BLI),[4]; vs isotype control,statistically significant reduction
same,median survival,"Apc^Min mice; early stage treatment (42 days), 30 mg/kg weekly",424.5 days
same,median survival,"Apc^Min mice; established polyposis, 30 mg/kg weekly from 4 months",264.5 days
same,median survival,"Apc^Min mice; late-stage treatment (120 days), 30 mg/kg weekly",261 days
same,Survival / polyp development,Apc^Min mice; long term treatment initiated at 6 weeks of age,prolonged survival
